Test results from patent US11369595B2, “Use of tryptophan metabolites for treating muscle atrophy” (METABRAIN RESEARCH, priority 2016, dated 2022).

Columns and labels:
C2C12 muscle cells = assay: Measurement of protein synthesis in C2C12 cells (radio-labeled leucine incorporation); format: cell-based; settings: for effect on protein synthesis in C2C12 muscle cells: 150 min incubation, radio-labeled leucine, versus DMSO control
Description: The cells are counted and seeded at the density of 20 000 cells per well in a 24-well plate in DMEM medium containing glucose in a proportion of 4.5 g/l and supplemented with fetal calf serum (10%) and with antibiotics (penicillin and streptomycin). Forty-eight hours layer, the myoblasts are induced to differentiate by partial serum deprivation (2% instead of 10%) for 5 days. The cells are then placed in medium without glucose or leucine (Krebs medium) for 1 h at 37° C., then incubated for 150 min in the presence of the products to be tested (DMSO (control), kynurenic acid or anthranilic acid or quinolinic acid or picolinic acid or 3OH-kynurenine) or reference (IGF-1, 100 ng/ml) in serum-free DMEM medium containing 2.5 μCi/ml radio-labeled leucine. At the end of the incubation, the supernatants are removed and the cells are lysed in 0.1N NaOH solution for 30 min. The radioactivity is measured in the cell fraction and the total amount of proteins is determined by assaying according to the Lowry method. Each condition is evaluated at least with n=6; IGF-1, 100 ng/ml is our control for stimulating protein synthesis. The results are expressed in cpm/μg of proteins after 150 min of incubation or as a percentage relative to the control condition. The results are expressed as % of the control and a statistical test is carried out: Dunnett's or Dun test (*p<0.05, **p<0.01, ***p<0.001 versus control). The results obtained with kynurenic acid, anthranilic acid, quinolinic acid, picolinic acid and 3OH-kynurenin are represented in FIGS. 1 to 5.

loss of muscle mass = settings: mice on a protein-poor diet, supplementation; cited from earlier work
C2C12 muscle fibers = assay: Evaluation of the diameter of the C2C12 muscle fibers; format: cell-based; settings: incubation for 3 days, 100 μM
Description: The C2C12 myoblast cells (ATCC CRL-1772) are seeded in 8-well plates treated with glycerol, at the density of 10 000 cells per well and cultured in DMEM medium containing glucose in a proportion of 4.5 g/l and supplemented with fetal calf serum (10%) and with antibiotics (penicillin and streptomycin). Forty-eight hours layer, the myoblasts are induced to differentiate by partial serum deprivation (2% instead of 10%) for 3 days. The cells are then placed in a serum-free, glucose-depleted medium (DMEM containing 1 g/l of glucose) in the presence of the molecules to be tested (DMSO (control) or kynurenic acid) or the references (IGF-1 at the concentration of 10 ng/ml or dexamethasone at 10 μM) for 3 days. At the end of the culture, the cells are rinsed and fixed using a 2.5% glutaraldehyde/0.1% triton solution for 1 h at ambient temperature. The cell layer is covered with DAPI (fluorescent labeling of the cell nucleus). After storage in the dark for 16 h in the cold, the slides are observed under a fluorescence microscope (Carl Zeiss, AxioVert 200) and the images are analyzed using the Axiovision 4.1 software for measuring the diameter of the fibers. A representative image of each condition is shown. A statistical test is carried out: Dunnett's or Dun test (*p<0.05, **p<0.01, ***p<0.001 versus control). The results obtained with kynurenic acid are represented in FIG. 7.

[1] = test system: myostatin gene expression in C2C12 muscle cells; assay: Measurement of myostatin gene expression in C2C12 cells (RT-qPCR); format: cell-based; settings: 6 hours of incubation, standardized to beta-actin
Description: The C2C12 myoblast cells (ATCC CRL-1772) are seeded in 24-well plates at the density of 30 000 cells per well and cultured in a DMEM medium containing glucose in a proportion of 4.5 g/l and supplemented with fetal calf serum (10%) and with antibiotics (penicillin and streptomycin). Forty-eight hours later, the myoblasts are induced to differentiate by partial serum deprivation (2% instead of 10%) for 5 days. The cells are then placed in a serum-free, glucose-depleted medium (DMEM containing 1 g/l of glucose) in the presence of the molecules to be tested (DMSO (control) or IGF-1 (100 ng/ml) or kynurenic acid) or of the references (IGF-1 at the concentration of 100 ng/ml) for 6 h. […] The samples analyzed all contain […] of cDNA, a qPCR buffer including the enzyme, the oligonucleotide mixture and the intercalating agent (sybergreen), and the pair of primers specific for the gene studied, strategically chosen between two exon sequences and at the final concentration of 200 nM. […] A fluorescence threshold is established by the program of the machine. […] It is this value which forms the basis for the calculations to relatively quantify the DNA. […] The primers used are given in table 1 below: At the end of the incubation, the expression of the myostatin gene is measured by RT-qPCR and standardized using the beta-actin housekeeping gene. […]

[2] = test system: muscle atrophy induced by immobilization; assay: Muscle atrophy induced by immobilization in mice; format: in vivo; settings: CD1 mice, 7 days immobilization, 3 mg/kg per day in the drinking water, compared with control group
Text: Limb immobilization is known to induce skeletal muscle atrophy involving mechanisms linked to protein degradation, to a change in muscle fiber types, to oxidative stress or inflammatory mechanisms. Briefly, male 8-9-week-old CD1 mice were used in this study. The foot of the left hindlimb was immobilized for 7 days according to the procedure described by Caron et al. (2009), in the dorso-tibial flexion position, by means of a surgical staple. The other foot (right hindlimb) is used as a control. For the duration of the immobilization, one group of animals (n=12) received a treatment with kynurenic acid (3 mg/kg per day) in the drinking water. Another group of animals served as a control (n=16 animals). At the end of the 7 days of study, the animals were sacrificed in order to remove the Tibialis anterial muscle from the two hindlimbs. For each animal, the difference between the weight of the muscle of the immobilized limb and the free limb is calculated, then related back to the bodyweight. The results are expressed as weight loss of the immobilized limb relative to the control limb (in mg per g of body weight), and a statistical test is carried out: Student's test (*p<0.05, **p<0.01, ***p<0.001 versus control group).

Nc1c(O)cccc1C(=O)C[C@H](N)C(=O)O [3OH-kynurenine, reference compound]
effect on protein synthesis in C2C12 muscle cells (C2C12 muscle cells): no effect on protein synthesis

Nc1ccccc1C(=O)C[C@H](N)C(=O)O [L-kynurenine]
effect on loss of muscle mass (loss of muscle mass): varies according to the dose tested (beneficial or negative)

N[C@@H](Cc1c[nH]c2ccccc12)C(=O)O [TRP, Tryptophan]
effect on loss of muscle mass (loss of muscle mass): capable of reducing the loss of muscle mass

Nc1ccccc1C(=O)O [anthranilic acid]
effect on protein synthesis in C2C12 muscle cells (C2C12 muscle cells): significantly induce protein synthesis

O=C(O)c1cc(=O)c2ccccc2[nH]1 [kynurenic acid]
size (diameter) of the C2C12 muscle fibers (C2C12 muscle fibers): increase in the size of the C2C12 muscle fibers
myostatin gene expression [1]: significant dose-dependent inhibition
effect on protein synthesis in C2C12 muscle cells (C2C12 muscle cells): significantly induce protein synthesis
dose dependence of stimulation of protein synthesis (C2C12 muscle cells; after 150 min of incubation): dose-dependent stimulation of protein synthesis
loss of muscle (Tibialis anterior) mass induced by immobilization [2]: significantly decreases the loss of muscle

O=C(O)c1ccccn1 [picolinic acid]
effect on protein synthesis in C2C12 muscle cells (C2C12 muscle cells): significantly induce protein synthesis

O=C(O)c1cccnc1C(=O)O [quinolinic acid]
effect on protein synthesis in C2C12 muscle cells (C2C12 muscle cells): significantly induce protein synthesis
